This note sets out measurements from paper PMC9221018, “Sulfonamide-Derived Dithiocarbamate Gold(I) Complexes Induce the Apoptosis of Colon Cancer Cells by the Activation of Caspase 3 and Redox Imbalance” (Biomedicines, 2022).

Series [1] addresses T1, recombinant human enzyme TrxR1 (Homo sapiens, UniProt Q16881).
T1 construct: purchased Sigma SRP 6081
T1 sequence (Q16881 161-647 limits assumed): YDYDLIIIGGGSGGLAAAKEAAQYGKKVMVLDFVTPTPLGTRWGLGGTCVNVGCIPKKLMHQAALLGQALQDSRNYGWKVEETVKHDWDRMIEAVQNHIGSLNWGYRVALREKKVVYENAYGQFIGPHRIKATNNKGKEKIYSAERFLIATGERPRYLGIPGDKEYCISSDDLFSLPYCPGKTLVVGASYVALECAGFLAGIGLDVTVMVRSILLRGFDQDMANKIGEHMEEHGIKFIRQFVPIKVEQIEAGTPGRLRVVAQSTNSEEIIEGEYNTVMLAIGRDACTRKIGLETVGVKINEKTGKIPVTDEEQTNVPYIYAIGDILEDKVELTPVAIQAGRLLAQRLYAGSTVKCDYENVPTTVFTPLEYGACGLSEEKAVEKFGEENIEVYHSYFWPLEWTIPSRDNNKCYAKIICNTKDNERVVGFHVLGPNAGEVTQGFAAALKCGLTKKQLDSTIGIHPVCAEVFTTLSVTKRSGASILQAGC
Nature of the series: Thioredoxin reductase 1 (TrxR1) activity assay (DTNB). The series is classed as biochemical. To be noted: recombinant TrxR1, complexes at their IC50 values (1 1.14 μM, 8 7.22 μM), 5 min incubation. The procedure:
The in vitro interaction of metal complexes with the enzyme thioredoxin reductase was analyzed using a thioredoxin reductase assay kit (Sigma, CS0170, St Louis, MO, USA). The procedure instructions in the kit were followed, though the rat liver thioredoxin reductase was replaced with recombinant human enzyme TrxR1 (SRP 6081, Sigma, St Louis, MO, USA). The reaction was initiated by adding DTNB (100 mM), and conversion to TNB^− was monitored at 412 nm every 30 s for 22 min using a SPECTROstar Nano (BMG Labtech, Ortenberg, Germany) multiplate reader. The results were expressed as a percentage of the TrxR activity with respect to the control.

Series [2] can be described thus: n-octanol-water distribution coefficient, shake-flask method. The series is classed as physicochemical. The note with it: n-octanol/buffered saline pH 7.4, shake-flask. The procedure: The n-octanol−water coefficients of the complexes were determined using a shake-flask method, as reported previously. Briefly, 100 mL buffered-saline (0.15 M NaCl, 10 mM phosphate [PO4^3−] buffer, pH 7.4) and 100 mL n-octanol were shaken for 72 h. The addition of 1 mg of the complexes followed by the centrifugation and separation of both phases gave two solutions, which were analysed by UV absorbance spectroscopy to determine their concentration in each phase. The corresponding value of log P was defined as log{[compound(organic)]/[compound(aqueous)]}.

Series [3] has as its system Caco-2 cells. Nature of the series: Propidium iodide DNA staining and cell cycle analysis. The note with it: complex 1 1.14 µM 48 h, complex 8 7.22 µM 72 h. The series is classed as cell-based, human. The procedure: Once the cells were seeded in 25 cm^2 flasks at a density of 1 × 10^4 cells/cm^2, they were exposed, after 24 post-sendings, to the drug panel for 48 or 72 h. The cells were fixed according to the previously described methods before being stained with 50 μg/mL PI solution. The signal intensity was analysed with a Beckman Coulter Gallios (Brea, CA, USA) equipped with a blue solid diode laser (488 nm) and a red solid diode laser (635 nm), collecting fluorescence with a 620 nm-long pass filter.

Series [4] concerns Caco-2 cells. Nature of the series: Mitochondrial membrane potential assay (DilC1). The series is classed as cell-based, human. The note with it: complex 1 1.14 µM 48 h, complex 8 7.22 µM 72 h. Here is the method: Caco-2 cells were seeded in 75 cm^2 flasks at a density of 1 × 10^4 cells/cm^2, and the 24-h post-seeding medium was replaced with medium containing the drug panel; it was then incubated for 48 or 72 h. The cells were then washed twice and resuspended in PBS at a concentration of 10^6 cells/mL before incubation with 5 µL of 10 µM 1,1′,3,3,3′-hexamethylindodicarbo-cyanine iodide (DilC1). After 15 min of incubation at 37 °C, 400 µL PBS was added, and the fluorescence was measured by flow cytometry at an excitation wavelength of 633 nm and an emission of 658 nm with a Beckman Coulter Gallios (Brea, CA, USA) equipped with a blue solid diode laser (488 nm) and a red solid diode laser (635 nm).

Series [5] has as its system Human epithelial fibroblast cells (NHDF-Ad). The series can be described thus: MTT viability assay in human epithelial fibroblasts. The series is classed as cell-based. The note with it: complexes at their IC50 (1 1.14 μM, 3 1.7 μM, 8 7.22 μM, 9 8.56 μM), 72 h. Here is the method: The human Caco-2 cell line (TC7 clone) was kindly provided by Dr. Edith Brot-Laroche (Université Pierre et Marie Curie-Paris 6, UMR S 872, Les Cordeliers, France). Human epithelial fibroblast cells (NHDF-Ad, Lonza®®, Porriño, Spain) were kindly provided by Dr. Gracia Mendoza (Aragon Health Research Institute, IIS Aragón, Spain). Caco-2 cells (passages 40–70) and fibroblasts (passages 10–30) were maintained in a humidified atmosphere of 5% CO2 at 37 °C and grown in medium following the method used by Quero et al.. The Caco-2 cells were sub-cultured in 25 cm^2 plastic flasks at a density of 1.2 × 10^4 cells/cm^2, while the fibroblasts were sub-cultured on 75 cm^2 plastic flasks at a density of 1 × 10^4 cells/cm^2. The culture medium was replaced every 2 days.
The gold complexes were diluted in dimethyl sulfoxide (DMSO) as a 10 mM stock solution, and then diluted in cell culture medium at the desired concentrations.
For the cytotoxicity screening assays, Caco-2 cells were seeded in 96-well plates at a density of 4 × 10^3 cells/well. The culture medium was replaced with medium containing the drug panel 24 h post-seeding, and the cells were incubated for 24, 48 and 72 h. […] In differentiated Caco-2 and fibroblasts, culture medium containing metal gold complexes was added 15 days post-seeding, and the cells were incubated for 72 h. The antiproliferative effect was measured using an MTT assay, as previously described by Mármol et al.. The absorbance at 540/620 nm was measured using a SPECTROstar Nano (BMG Labtech, Ortenberg, Germany). In order to determine the selectivity index (SI), the IC50 value of the differentiated Caco-2 cells was divided by IC50 value in undifferentiated Caco-2, obtaining the ratio of the normal/cancerous cells’ toxicity.
Background: Tetrazolium dyes change colour on reduction, which living cells bring about.

The next series deals with p53. The series can be described thus: Determination of p53 protein by flow cytometry. The series is classed as cell-based, human. To be noted: Caco-2; complex 1 1.14 µM 48 h, complex 8 7.22 µM 72 h. The procedure: Caco-2 cells were seeded in a 75 cm^2 flask at a density of 1 × 10^4 cells/cm^2; 24 h later, they were exposed to the drug panel for 48 or 72 h. Then, the cells were collected and processed as previously described. Finally, 50 µL of every sample was incubated with 5 µL anti-active caspase-3 (BD Pharmigen, San Diego, CA, USA, Clone C92-605) and 5 µL p53 antibody (Miltenyi, Auburn, CA, USA, Clone REA609). The fluorescence was measured by flow cytometry using a Beckman Coulter Gallios (Brea, CA, USA) equipped with a blue solid diode laser (488 nm) and a red solid diode laser (635 nm). For the caspase-3 determination, the excitation wavelength was set at 488 nm and the emission was set at 525 nm; for the p53 analysis, the excitation was set at 635 nm and the emission was set at 660 nm.
Background: In flow cytometry, cells or beads pass a laser one at a time.

On to `O=S(=O)(NC(=S)[S][Au][PH](c1ccccc1)(c1ccccc1)c1ccccc1)c1ccccc1` [Complex 1, [Au(S2CNHSO2C6H5)(PPh3)]], for which, in series [1], the “decrease in TrxR activity” value is “around 80%”. Moreover, in series [2], the “Log P7.4” value is 0.75. Also, the cell cycle distribution entry in the series on Caco-2 cells [3] is listed as “significantly increased the number of cells arrested in the G1 phase”. In addition, in the series on Caco-2 cells [4], the “mitochondrial depolarization (cells with disturbed MMP)” value is given as “induced similar mitochondrial depolarization”. Besides, the “decrease of cell viability” value in series [5] was “did not compromise the viability”. Moreover, the “cells with active p53” value with p53 is given as “significant increase in cells with active p53”.

Consider “[Au(S2CNHSO2-p-Me-C6H4)(IMePropargyl)] [Complex 8]”, for which, in series [1], the “decrease in TrxR activity” value was “around 80%”. Further, the “Log P7.4” value in series [2] was −0.13. In the series on Caco-2 cells [3], the cell cycle distribution entry is “significantly increased the number of cells arrested in the G1 phase”. Further, the “mitochondrial depolarization (cells with disturbed MMP)” value with Caco-2 cells [4] is reported as “induced similar mitochondrial depolarization”. Also, the “decrease of cell viability” value in series [5] is reported as “did not compromise the viability”. In addition, in the series with p53, the “cells with active p53” value is reported as “significant increase in cells with active p53”.
